Assays:
[1] = Stability in human liver microsomes assessed as parent compound remaining after 10 mins; assay type: ADME, Microsome; details: liver microsomes, read-out: Stability
PXR = molecular target: T1, PXR (Homo sapiens, UniProt O75469); test: Transactivation of PXR (unknown origin) expressed in human HepG2 cells assessed as maximum receptor activation response relative to control; assay type: cell-based; details: human HepG2 cells that express PXR, read-out: %max
T1 sequence (O75469 whole entry): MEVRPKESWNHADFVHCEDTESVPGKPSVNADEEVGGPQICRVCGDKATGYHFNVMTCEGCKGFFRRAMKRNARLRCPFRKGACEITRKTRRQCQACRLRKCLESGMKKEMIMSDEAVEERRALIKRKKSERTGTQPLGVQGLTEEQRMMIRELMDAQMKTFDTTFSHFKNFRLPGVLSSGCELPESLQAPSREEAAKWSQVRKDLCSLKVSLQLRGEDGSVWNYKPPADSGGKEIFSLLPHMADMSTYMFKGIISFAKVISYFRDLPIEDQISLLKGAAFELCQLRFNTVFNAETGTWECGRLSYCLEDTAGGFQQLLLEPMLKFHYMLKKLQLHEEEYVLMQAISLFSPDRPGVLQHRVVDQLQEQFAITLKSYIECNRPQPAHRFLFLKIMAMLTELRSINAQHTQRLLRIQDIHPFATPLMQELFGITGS

[2] = Stability in mouse liver microsomes assessed as parent compound remaining after 10 mins; assay type: ADME, Microsome; details: liver microsomes, read-out: Stability
[3] = molecular target: T2, Nuclear receptor ROR-alpha (Homo sapiens, UniProt P35398); test: Inverse agonist activity at human Gal4-fused RORalpha LBD (272 to 556 residues) expressed in human Jurkat cells measured after 18 hrs by steady-glo luciferase reporter gene assay; assay type: cell-based
T2 sequence (P35398 whole entry): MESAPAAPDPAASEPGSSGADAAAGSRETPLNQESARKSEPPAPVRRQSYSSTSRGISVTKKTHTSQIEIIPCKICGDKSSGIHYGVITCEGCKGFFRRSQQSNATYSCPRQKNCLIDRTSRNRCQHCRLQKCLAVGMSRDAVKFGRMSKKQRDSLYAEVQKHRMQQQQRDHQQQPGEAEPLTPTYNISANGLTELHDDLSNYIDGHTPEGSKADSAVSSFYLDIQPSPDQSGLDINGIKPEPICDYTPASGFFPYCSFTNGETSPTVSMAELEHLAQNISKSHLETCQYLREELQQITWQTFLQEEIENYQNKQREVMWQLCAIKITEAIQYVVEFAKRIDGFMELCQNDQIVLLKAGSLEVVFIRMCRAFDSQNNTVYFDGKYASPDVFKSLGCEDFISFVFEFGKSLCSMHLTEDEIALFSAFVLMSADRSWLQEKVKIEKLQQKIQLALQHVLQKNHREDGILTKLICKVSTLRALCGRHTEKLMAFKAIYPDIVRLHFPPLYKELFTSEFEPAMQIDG

[4] = molecular target: T3, Nuclear receptor ROR-beta (Homo sapiens, UniProt Q92753); test: Inverse agonist activity at human Gal4-fused RORbeta LBD (200 to 559 residues) expressed in human Jurkat cells measured after 18 hrs by steady-glo luciferase reporter gene assay; assay type: cell-based
T3 sequence (Q92753 whole entry): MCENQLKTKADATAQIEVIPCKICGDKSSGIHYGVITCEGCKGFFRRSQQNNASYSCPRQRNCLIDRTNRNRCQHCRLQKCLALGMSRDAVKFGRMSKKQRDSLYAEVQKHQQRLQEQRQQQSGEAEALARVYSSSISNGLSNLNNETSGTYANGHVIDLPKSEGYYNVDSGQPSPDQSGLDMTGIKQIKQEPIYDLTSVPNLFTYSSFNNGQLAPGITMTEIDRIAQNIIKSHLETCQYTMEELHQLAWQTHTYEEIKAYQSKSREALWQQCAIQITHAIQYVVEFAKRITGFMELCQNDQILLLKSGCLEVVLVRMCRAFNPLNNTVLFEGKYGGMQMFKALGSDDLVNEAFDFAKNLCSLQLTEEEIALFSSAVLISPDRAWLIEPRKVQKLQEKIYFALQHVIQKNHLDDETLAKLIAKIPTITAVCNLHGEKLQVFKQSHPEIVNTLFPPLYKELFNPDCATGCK

[5] = Half life in rat liver microsomes; assay type: ADME, Microsome
[6] = Permeability in human Caco2 cells; assay type: ADME, cell-based; details: Caco-2, read-out: permeability
Cytochrome P450 2B6 = molecular target: T4, Cytochrome P450 2B6 (Homo sapiens, UniProt P20813); test: Inhibition of CYP2B6 (unknown origin); assay type: ADME
T4 sequence (P20813 whole entry): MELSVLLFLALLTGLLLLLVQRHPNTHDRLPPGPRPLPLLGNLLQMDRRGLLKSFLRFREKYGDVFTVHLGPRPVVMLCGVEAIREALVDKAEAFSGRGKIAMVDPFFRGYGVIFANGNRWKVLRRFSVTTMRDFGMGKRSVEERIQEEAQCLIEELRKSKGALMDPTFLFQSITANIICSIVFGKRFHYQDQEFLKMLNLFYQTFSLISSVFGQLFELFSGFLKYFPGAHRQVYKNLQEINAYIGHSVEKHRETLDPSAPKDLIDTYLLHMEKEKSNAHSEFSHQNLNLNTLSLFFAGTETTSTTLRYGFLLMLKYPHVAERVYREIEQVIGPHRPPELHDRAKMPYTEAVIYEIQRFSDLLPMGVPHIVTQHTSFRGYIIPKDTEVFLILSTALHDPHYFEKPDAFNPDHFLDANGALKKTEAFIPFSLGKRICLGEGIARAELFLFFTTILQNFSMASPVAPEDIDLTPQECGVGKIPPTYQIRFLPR

Cytochrome P450 2C8 = molecular target: T5, Cytochrome P450 2C8 (Homo sapiens, UniProt P10632); test: Inhibition of CYP2C8 (unknown origin); assay type: ADME
T5 sequence (P10632 whole entry): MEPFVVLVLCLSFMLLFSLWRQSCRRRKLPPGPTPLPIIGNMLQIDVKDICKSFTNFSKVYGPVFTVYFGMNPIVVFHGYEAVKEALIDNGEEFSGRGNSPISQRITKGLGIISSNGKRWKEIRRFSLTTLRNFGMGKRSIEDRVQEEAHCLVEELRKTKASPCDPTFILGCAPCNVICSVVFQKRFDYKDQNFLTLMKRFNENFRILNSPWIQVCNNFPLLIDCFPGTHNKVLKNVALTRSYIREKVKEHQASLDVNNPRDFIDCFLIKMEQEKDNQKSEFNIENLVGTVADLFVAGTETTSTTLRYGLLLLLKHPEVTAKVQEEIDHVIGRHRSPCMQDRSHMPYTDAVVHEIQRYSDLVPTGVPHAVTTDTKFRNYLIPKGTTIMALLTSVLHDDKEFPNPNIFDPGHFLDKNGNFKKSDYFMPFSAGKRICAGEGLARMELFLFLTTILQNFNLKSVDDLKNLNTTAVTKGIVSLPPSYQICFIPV

Cytochrome P450 2C9 = Cytochrome P450 2C9 (Homo sapiens, UniProt P11712); test: Inhibition of CYP2C9 (unknown origin); assay type: ADME
Cytochrome P450 2C9, sequence (P11712 whole entry): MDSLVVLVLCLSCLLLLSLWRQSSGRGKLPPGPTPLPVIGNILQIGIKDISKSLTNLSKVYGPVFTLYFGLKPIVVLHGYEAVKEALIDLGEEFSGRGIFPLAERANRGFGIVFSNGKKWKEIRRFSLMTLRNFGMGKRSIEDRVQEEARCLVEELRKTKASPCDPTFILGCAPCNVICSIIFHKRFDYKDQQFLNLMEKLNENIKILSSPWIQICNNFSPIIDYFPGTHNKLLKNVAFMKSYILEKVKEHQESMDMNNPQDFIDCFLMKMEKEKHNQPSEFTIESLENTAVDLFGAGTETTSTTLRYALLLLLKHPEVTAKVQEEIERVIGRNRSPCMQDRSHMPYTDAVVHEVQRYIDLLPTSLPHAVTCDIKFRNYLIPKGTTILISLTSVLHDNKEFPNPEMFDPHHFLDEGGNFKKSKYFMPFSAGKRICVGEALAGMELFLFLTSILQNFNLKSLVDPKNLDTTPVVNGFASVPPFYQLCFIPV

Cytochrome P450 2C19 = Cytochrome P450 2C19 (Homo sapiens, UniProt P33261); test: Inhibition of CYP2C19 (unknown origin); assay type: ADME
Cytochrome P450 2C19, sequence (P33261 whole entry): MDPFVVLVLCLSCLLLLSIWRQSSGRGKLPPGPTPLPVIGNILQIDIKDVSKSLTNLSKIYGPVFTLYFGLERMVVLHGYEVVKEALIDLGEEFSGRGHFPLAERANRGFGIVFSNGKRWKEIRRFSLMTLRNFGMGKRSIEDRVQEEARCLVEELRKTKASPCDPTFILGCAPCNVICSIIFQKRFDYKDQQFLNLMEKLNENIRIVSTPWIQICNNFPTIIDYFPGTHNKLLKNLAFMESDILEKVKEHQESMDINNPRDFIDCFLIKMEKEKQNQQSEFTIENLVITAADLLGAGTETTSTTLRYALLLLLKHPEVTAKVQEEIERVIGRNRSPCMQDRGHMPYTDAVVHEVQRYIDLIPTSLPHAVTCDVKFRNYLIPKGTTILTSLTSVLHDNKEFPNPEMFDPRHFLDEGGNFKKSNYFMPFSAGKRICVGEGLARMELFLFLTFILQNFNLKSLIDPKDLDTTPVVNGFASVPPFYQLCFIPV

Cytochrome P450 2D6 = Cytochrome P450 2D6 (Homo sapiens, UniProt P10635); test: Inhibition of CYP2D6 (unknown origin); assay type: ADME
Cytochrome P450 2D6, sequence (P10635 whole entry): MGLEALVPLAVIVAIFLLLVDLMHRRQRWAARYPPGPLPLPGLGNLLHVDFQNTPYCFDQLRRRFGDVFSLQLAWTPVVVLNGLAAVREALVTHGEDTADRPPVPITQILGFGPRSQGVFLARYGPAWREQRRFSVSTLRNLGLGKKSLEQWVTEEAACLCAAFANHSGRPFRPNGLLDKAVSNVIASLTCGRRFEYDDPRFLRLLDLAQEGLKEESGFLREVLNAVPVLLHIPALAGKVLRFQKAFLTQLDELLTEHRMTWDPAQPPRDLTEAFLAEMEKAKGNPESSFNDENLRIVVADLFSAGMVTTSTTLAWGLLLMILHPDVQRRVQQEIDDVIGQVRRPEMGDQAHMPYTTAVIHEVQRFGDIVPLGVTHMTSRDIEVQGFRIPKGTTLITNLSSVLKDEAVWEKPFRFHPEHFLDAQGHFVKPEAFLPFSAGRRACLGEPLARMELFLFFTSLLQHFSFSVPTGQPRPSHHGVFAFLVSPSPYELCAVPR

[7] = Tmax in Balb/c mouse at 10 mg/kg, po; assay type: ADME, organism-based; details: in vivo
[8] = AUC in Balb/c mouse at 10 mg/kg, po; assay type: ADME, organism-based; details: in vivo

| Compound | remaining at 10 min [1] [%] | Emax (PXR) [%] | remaining at 10 min [2] [%] | EC50 [3] [µM] | EC50 [4] [µM] | half-life [5] [h] | Papp [6] [×10⁻⁶ cm/s] | IC50 (Cytochrome P450 2B6) [µM] | IC50 (Cytochrome P450 2C8) [µM] | IC50 (Cytochrome P450 2C9) [µM] | IC50 (Cytochrome P450 2C19) [µM] | IC50 (Cytochrome P450 2D6) [µM] | Tmax [7] [h] | AUC [8] [µM·h] |
| --- | --- | --- | --- | --- | --- | --- | --- | --- | --- | --- | --- | --- | --- | --- |
| O=C(O)C12CCC(C(=O)N3CC[C@](c4ccc(C(F)(C(F)(F)F)C(F)(F)F)cc4)(S(=O)(=O)c4ccc(F)cc4)C3)(CC1)CC2 | 100 | 6 | 73 | > 40 | > 40 | > 2 | 15 | > 10 | > 10 | > 10 | > 10 | > 10 | 1 | 24 |
| CC[C@]1(C(=O)N2CC[C@](c3ccc(C(F)(C(F)(F)F)C(F)(F)F)cc3)(S(=O)(=O)c3ccc(F)cc3)C2)CC[C@H](C(=O)O)CC1 | 89 | 6 | 83 | > 40 | > 40 | > 2 | 15.3 | > 10 | > 10 | > 10 | > 10 | > 10 | 0.5 | 16.6 |
